# Test results published in ChEMBL document CHEMBL1146432, “Bengamides and Related New Amino Acid Derivatives from the New Caledonian Marine Sponge Jaspis carteri” (J Nat Prod, 1997).
# Active and inactive are the calls of the source. The rule behind the calls is not given here.
# Test system: Candida
# Experiment: Antifungal activity against Candida at 100 ug/mL
# Type: functional, organism-based
row,Compound,Activity
1,CCCCCCCCCCCCCC(=O)O[C@H]1CC[C@H](NC(=O)[C@H](OC)[C@H](O)[C@@H](O)[C@H](O)/C=C/C(C)C)C(=O)NC1,inactive
2,CCCCCCCCCCCCCC(=O)O[C@H]1CC[C@H](NC=O)C(=O)N(C)C1,inactive
3,CO[C@H]1C(=O)O[C@@H]([C@H](O)/C=C/C(C)C)[C@H]1O,inactive
4,CCCCCCCCCCCCCC(=O)O[C@H]1CC[C@H](NC(=O)[C@H](OC)[C@H](O)[C@@H](O)[C@H](O)/C=C/C(C)C)C(=O)N(C)C1,inactive
5,CCCCCCCCCCCCCCC(=O)O[C@H]1CC[C@H](NC(=O)[C@H](OC)[C@H](O)[C@@H](O)[C@H](O)/C=C/C(C)C)C(=O)NC1,inactive
6,CCCCCCCCCCCCCCC(=O)O[C@H]1CC[C@H](NC(=O)[C@H](OC)[C@H](O)[C@@H](O)[C@H](O)/C=C/C(C)C)C(=O)N(C)C1,inactive
7,CCCCCCCCCCCCC(=O)O[C@H]1CC[C@H](NC(=O)[C@H](OC)[C@H](O)[C@@H](O)[C@H](O)/C=C/C(C)C)C(=O)NC1,inactive
8,CCCCCCCCCCCCC(=O)O[C@H]1CC[C@H](NC(=O)[C@H](OC)[C@H](O)[C@@H](O)[C@H](O)/C=C/C(C)C)C(=O)N(C)C1,inactive
